According to patent publication US5057520A, “7-(peptidylpyrolidinyl)naphthyridine antibacterial compounds” (Abbott Laboratories, priority 1989, dated 1991):
Values after ≈ are worked out from the molar mass of the structure shown. Counter-ions that a name gives are not always drawn. Like-named read-outs stand apart in the source and are kept apart here.

Columns and labels:
[1] = Conversion of prodrug to parent drug in whole blood at 37° C.; format: in vitro ADME, Human
Experimental: (§1) An aqueous solution of prodrug (Z) is spiked into fresh whole blood containing sodium heparin as an anticoagulant. The sample is mixed gently by inversion and placed in a 37° waterbath. At selected time intervals an 0.5 ml aliquot of blood is removed and placed in a chilled 1.5 ml centrifuge tube (ice temperature). Samples are centrifuges at 13,000 rpm for two minutes to separate plasma. An 0.2 ml aliquot of the plasma sample is combined with 0.2 ml internal standard (7-(4-amino-2-methyl-1-pyrrolidinyl)-1-(2,4-difluorophenyl)-6-fluoro-1,4-d ihydro-4-oxo-1,8-naphthyridine-3-carboxylic acid in 0.2M sodium phosphate pH 7.2 buffer) and 6 mls CH2 Cl2 :EtoH (9:1 by volume). Samples are capped and shaken gently for 10 minutes. Samples are centrifuges at 2500 rpm for 10 minutes (4° C.). The aqueous layer is aspirated to waste and the organic layer is transferred to a conical centrifuge tube and evaporated to dryness with a stream of dry air and low heat ([…]). Samples are reconstituted with 0.2 ml mobile phase followed by vortexing. Samples are centrifuges at 2500 rpm for 10 minutes to separate precipitate. The supernatant is transferred to a WISP vial with plastic insert for HPLC analysis.

[2] = tested on: ENTEROBACTER AEROGENES ATCC 13048; experiment: In vitro MIC, agar dilution (BHIA); format: cell-based
[3] = tested on: PSEUDOMONAS AERUGINOSA K799/WT; experiment: In vitro MIC, agar dilution (BHIA); format: cell-based
[4] = tested on: PSEUDOMONAS AERUGINOSA BMH10; experiment: In vitro MIC, agar dilution (BHIA); format: cell-based
[5] = tested on: PROVIDENCIA STUARTII CMX 640; experiment: In vitro MIC, agar dilution (BHIA); format: cell-based
P. Aeruginosa A5007 = experiment: Acute mouse protection test; format: in vivo; details: mice infected i.p. with P. Aeruginosa A5007, observed 7 days; for SC (ED50): SC dosing at 1 and 5 hours post-infection; for Oral (ED50): oral dosing at 1 and 5 hours post-infection
[6] = Conversion of prodrug to parent drug in whole blood at 37° C.; format: in vitro ADME, Dog
Experimental: as §1

ESCHERICHIA COLI H560 = experiment: In vitro MIC, agar dilution (BHIA); format: cell-based
Description: (§2) The MIC results are in ug/ml.

ESCHERICHIA COLI SS = experiment: In vitro MIC, agar dilution (BHIA); format: cell-based
Description: as §2

ACINETOBACTER SP CMX 669 = experiment: In vitro MIC, agar dilution (BHIA); format: cell-based
Stap. Aureus NCTC 10649 = experiment: Acute mouse protection test; format: in vivo; details: mice infected i.p. with Stap. Aureus NCTC 10649, observed 7 days; for SC (ED50): SC dosing at 1 and 5 hours post-infection; for Oral (ED50): oral dosing at 1 and 5 hours post-infection
[7] = tested on: KLEBSIELLA PNEUMONIAE ATCC 8045; experiment: In vitro MIC, agar dilution (BHIA); format: cell-based
[8] = tested on: ENTEROCOCCUS FAECIUM ATCC 8043; experiment: In vitro MIC, agar dilution (BHIA); format: cell-based
[9] = tested on: STREPTOCOCCUS PYOGENES EES61; experiment: In vitro MIC, agar dilution (BHIA); format: cell-based
[10] = tested on: MICROCOCCUS LUTEUS ATCC 9341; experiment: In vitro MIC, agar dilution (BHIA); format: cell-based
[11] = tested on: PSEUDOMONAS AERUGINOSA K799/61; experiment: In vitro MIC, agar dilution (BHIA); format: cell-based
ESCHERICHIA COLI JUHL = experiment: In vitro MIC, agar dilution (BHIA); format: cell-based
E. Coli Juhl = experiment: Acute mouse protection test; format: in vivo; details: mice infected i.p. with E. Coli JUHL, observed 7 days; for SC (ED50): SC dosing at 1 and 5 hours post-infection; for Oral (ED50): oral dosing at 1 and 5 hours post-infection
[12] = tested on: STREPTOCOCCUS PYOGENES 2548 INDUC; experiment: In vitro MIC, agar dilution (BHIA); format: cell-based
[13] = tested on: MICROCOCCUS LUTEUS ATCC 4698; experiment: In vitro MIC, agar dilution (BHIA); format: cell-based
[14] = tested on: PSEUDOMONAS AERUGINOSA A5007; experiment: In vitro MIC, agar dilution (BHIA); format: cell-based
[15] = Conversion of prodrug to parent drug in whole blood at 37° C.; format: in vitro ADME, Rat
Experimental: as §1

[16] = tested on: STREPTOCOCCUS AGALACTIAE CMX 508; experiment: In vitro MIC, agar dilution (BHIA); format: cell-based
PSEUDOMONAS CEPACIA 296I = experiment: In vitro MIC, agar dilution (BHIA); format: cell-based
[17] = Solubility in water and at pH 7.4; details: for Water Solubility: the sign > refers to an approximate value and the solubility may be within 10% higher
[18] = Plasma level in dog after oral dose; details: 10 mg equivalent/kg oral dose, HPLC
Description: The plasma samples were collected and determined by the HPLC analysis.

[19] = tested on: STREPTOCOCCUS BOVIS A5169; experiment: In vitro MIC, agar dilution (BHIA); format: cell-based
[20] = tested on: STREPTOCOCCUS PYOGENES 930 CONST; experiment: In vitro MIC, agar dilution (BHIA); format: cell-based
ESCHERICHIA COLI DC-2 = experiment: In vitro MIC, agar dilution (BHIA); format: cell-based
Description: as §2

ESCHERICHIA COLI KNK 437 = experiment: In vitro MIC, agar dilution (BHIA); format: cell-based
[21] = STREPTOCOCCUS AGALACTIAE CMX 508

Row | Structure (SMILES) | Half Life Human [1] | MIC [3] | MIC [4] | MIC [5] | SC (ED50) (P. Aeruginosa A5007) | Oral (ED50) (P. Aeruginosa A5007) | MIC (ESCHERICHIA COLI H560) | MIC (ESCHERICHIA COLI SS) | MIC (ACINETOBACTER SP CMX 669) | SC (ED50) (Stap. Aureus NCTC 10649) | Oral (ED50) (Stap. Aureus NCTC 10649) | MIC [7] | MIC [10] | MIC [11] | SC (ED50) (E. Coli Juhl) | Oral (ED50) (E. Coli Juhl) | MIC [12] | MIC [13] | MIC [14] | MIC (PSEUDOMONAS CEPACIA 296I) | also measured
1 | NC(Cc1ccccc1)C(=O)NC1CCN(c2nc3c(cc2F)c(=O)c(C(=O)O)cn3-c2ccc(F)cc2F)C1 (stereo not shown) [Example 5] | 10.7 m | 25 µg/mL (≈ 45.3 µM) | 25 µg/mL (≈ 45.3 µM) | > 100 µg/mL | 7.5 mg/kg/day | 18.6 mg/kg/day | 3.1 µg/mL (≈ 5.62 µM) | .1 µg/mL (≈ 0.181 µM) | 12.5 µg/mL (≈ 22.7 µM) | 1.0 mg/kg/day | 3.6 mg/kg/day | 1.56 µg/mL (≈ 2.83 µM) | 25 µg/mL (≈ 45.3 µM) | 1.56 µg/mL (≈ 2.83 µM) | 0.7 mg/kg/day | 3.5 mg/kg/day | .78 µg/mL (≈ 1.41 µM) | 12.5 µg/mL (≈ 22.7 µM) | 50 µg/mL (≈ 90.7 µM) | > 100 µg/mL | MIC [2]: 12.5 µg/mL (≈ 22.7 µM); Half Life Dog [6]: 8.3 m; MIC [8]: 3.1 µg/mL (≈ 5.62 µM); MIC ([9]; STREPTOCOCCUS PYOGENES EES61): 3.1 µg/mL (≈ 5.62 µM); MIC (ESCHERICHIA COLI JUHL): 3.1 µg/mL (≈ 5.62 µM); Half Life Rat [15]: 4.5 m; MIC [16, 21]: 3.1 µg/mL (≈ 5.62 µM)
2 | CCC[C@H](NC(=O)CN)C(=O)NC1CCN(c2nc3c(cc2F)c(=O)c(C(=O)O)cn3-c2ccc(F)cc2F)C1 (stereo partly shown) [Example 52] | – | – | – | – | – | – | – | – | – | – | – | – | – | – | – | – | – | – | – | – | Solubility pH 7.4 [17]: 0.08 mg/ml; Water Solubility [17]: 6.89 mg/mL; AUC (0-32h) [18]: 13.9
3 | NCC(=O)N[C@@H](Cc1ccccc1)C(=O)NC1CCN(c2nc3c(cc2F)c(=O)c(C(=O)O)cn3-c2ccc(F)cc2F)C1 (stereo partly drawn) [Example 1b, 7-[(3-Gly-L-Phe-amino)-1-pyrrolidinyl]-1-(2,4-difluorophenyl)-6-fluoro-1,4-dihydro-4-oxo-1,8-naphthyridine-3-carb oxylic acid hydrochloride] | – | 25 µg/mL | 25 µg/mL | 100 µg/mL | 8.0 mg/kg/day | 27.3 mg/kg/day | 1.56 µg/mL | .2 µg/mL | 12.5 µg/mL | 0.5 mg/kg/day | 0.7 mg/kg/day | 12.5 µg/mL | 6.25 µg/mL | 12.5 µg/mL | 0.6 mg/kg/day | 1.8 mg/kg/day | .78 µg/mL | .78 µg/mL | 25 µg/mL | 50 µg/mL | MIC ([19]; STR[…] A5169): 1.56 µg/mL; MIC ([9]; STR[…] EES61): 1.56 µg/mL; MIC [20]: .78 µg/mL; MIC ([16]; STR[…] 508): 1.56 µg/mL
4 | CC(N)C(=O)NC(C)C(=O)NC1CCN(c2nc3c(cc2F)c(=O)c(C(=O)O)cn3-c2ccc(F)cc2F)C1 (stereo not shown) [Example 15] | 3.0 m | 50 µg/mL (≈ 91.5 µM) | 100 µg/mL (≈ 183 µM) | 100 µg/mL (≈ 183 µM) | 3.1 mg/kg/day | 9.1 mg/kg/day | 6.2 µg/mL (≈ 11.3 µM) | .39 µg/mL (≈ 0.714 µM) | 12.5 µg/mL (≈ 22.9 µM) | 0.8 mg/kg/day | 1.3 mg/kg/day | 12.5 µg/mL (≈ 22.9 µM) | > 100 µg/mL | 3.1 µg/mL (≈ 5.67 µM) | 0.5 mg/kg/day | 2.0 mg/kg/day | 12.5 µg/mL (≈ 22.9 µM) | 100 µg/mL (≈ 183 µM) | 100 µg/mL (≈ 183 µM) | 50 µg/mL (≈ 91.5 µM) | MIC [2]: 25 µg/mL (≈ 45.7 µM); Solubility pH 7.4: 1.07 mg/ml; Half Life Dog [6]: 2.4 m; MIC (ESCHERICHIA COLI DC-2): 100 µg/mL (≈ 183 µM); MIC (ESCHERICHIA COLI KNK 437): 50 µg/mL (≈ 91.5 µM); MIC [8]: 50 µg/mL (≈ 91.5 µM); MIC ([19]; STREPTOCOCCUS BOVIS A5169): 50 µg/mL (≈ 91.5 µM); MIC ([9]; STREPTOCOCCUS PYOGENES EES61): 12.5 µg/mL (≈ 22.9 µM); MIC [20]: 12.5 µg/mL (≈ 22.9 µM); MIC (ESCHERICHIA COLI JUHL): 12.5 µg/mL (≈ 22.9 µM); Half Life Rat [15]: 84.8 s; MIC [16, 21]: 12.5 µg/mL (≈ 22.9 µM)
5 | CCC[C@H](NC(=O)[C@H](C)N)C(=O)NC1CCN(c2nc3c(cc2F)c(=O)c(C(=O)O)cn3-c2ccc(F)cc2F)C1 (stereo partly shown) [Example 55b, 7-(3-Ala-Nval-amino-1-pyrrolidinyl)-6-fluoro-1-(2,4-difluorophenyl)-1,4-di hydro-4-oxo-1,8-naphthyridine-3-carboxylic acid] | – | – | – | – | – | – | – | – | – | – | – | – | – | – | – | – | – | – | – | – | Half Life Human ([1]; conversion to parent drug in human whole blood at 37° C., seconds): 88.0 s; Half Life Dog ([6]; conversion to parent drug in dog whole blood at 37° C., seconds): 118.0 s; Solubility pH 7.4 [17]: 1.03 mg/ml; Water Solubility [17]: 26 mg/mL; AUC (0-32h) [18]: 15.4; Half Life Rat ([15]; conversion to parent drug in rat whole blood at 37° C., seconds): 33.2 s
